From ChEMBL document CHEMBL1201862, “PubChem BioAssay data set” (2004)
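1) Cells in 96-well plates. 2) Compound, 48 h, 5 concentrations. 3) Linear interpolation between surrounding doses. 4) Unreached endpoint = highest concentration. The concentration for 50% growth inhibition is given as GI50.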 Calls of active or inactive are those of the source. Cut-off read from the data, not from the text of the source: active = GI50 up to about 1.1 µM and inactive = higher.

Legend:
Experiment in all cases: NCI tumour cell line growth inhibition, 48 h
[1] = tested on: SW-620
[2] = tested on: Malme-3M
[3] = tested on: Hs-578T
[4] = tested on: KM12
[5] = tested on: NCI-H23
[6] = tested on: OVCAR-3
[7] = tested on: COLO 205
[8] = tested on: HCT-15
[9] = tested on: SK-MEL-5
[10] = tested on: MCF7
[11] = tested on: OVCAR-8
[12] = tested on: NCI-H226
[13] = tested on: MDA-MB-231
[14] = tested on: UACC-62
[15] = tested on: SF-268
[16] = tested on: HCT-116
[17] = tested on: NCI/ADR-RES
[18] = tested on: LOX IMVI

Structure (SMILES)	GI50 [1]	GI50 [2]	GI50 [3]	GI50 [4]	GI50 [5]	GI50 [6]	GI50 [7]	GI50 [8]	GI50 [9]	GI50 [10]	GI50 [11]	GI50 [12]	GI50 [13]	GI50 [14]	GI50 [15]	GI50 [16]	GI50 [17]	GI50 [18]
CCOc1ccc(N/C(Cl)=C(Cl)\C(=C(\Nc2ccc(OCC)cc2)n2nnc3ccccc32)[N+](=O)[O-])cc1	2.32 µM (inactive)	2.32 µM (inactive)	2.58 µM (inactive)	19.1 µM (inactive)	6.38 µM (inactive)	4.12 µM (inactive)	7.38 µM (inactive)	1.91 µM	8.49 µM (inactive)	5.89 µM (inactive)	1.74 µM (inactive)	19.4 µM (inactive)	6.08 µM (inactive)	15.7 µM (inactive)	6.98 µM (inactive)	2.15 µM (inactive)	15.2 µM (inactive)	1.65 µM (inactive)
Cc1cnc2nc(-c3cccc4ccccc34)cc(O)c2c1	0.000449 µM (active)	0.000289 µM (active)	0.00107 µM (active)	0.000551 µM (active)	0.00179 µM (active)	0.000281 µM (active)	0.000708 µM (active)	0.000454 µM	0.000359 µM (active)	0.00121 µM (active)	0.00251 µM (active)	0.01 µM (active)	0.00493 µM (active)	0.000518 µM (active)	0.000516 µM (active)	0.000652 µM (active)	0.000428 µM (active)	0.000819 µM (active)
CC(C)N(C(=O)c1ccc(NCc2cc(O)ccc2O)cc1)C(C)C	21.5 µM (inactive)	13.9 µM (inactive)	26.2 µM (inactive)		17.9 µM (inactive)	11.6 µM (inactive)	30.4 µM (inactive)	16.8 µM	14.6 µM (inactive)	23.9 µM (inactive)	14.4 µM (inactive)	17.2 µM (inactive)	14.3 µM (inactive)	14.2 µM (inactive)	17.6 µM (inactive)	15.5 µM (inactive)	14.8 µM (inactive)	14.7 µM (inactive)
O=C1C=C(NCC(c2ccccc2)c2ccccc2)C(=O)c2ncccc21	1.83 µM (inactive)	1.36 µM (inactive)	2.63 µM (inactive)	2.19 µM (inactive)	1.54 µM (inactive)	0.991 µM (active)	9.89 µM (inactive)	0.504 µM	0.427 µM (active)	1.4 µM (inactive)	2.39 µM (inactive)	3.1 µM (inactive)	2.67 µM (inactive)	1.39 µM (inactive)	2.53 µM (inactive)	8.53 µM (inactive)	2.49 µM (inactive)	1.11 µM (active)
C(=C\c1cccs1)/c1cccc(/C=C/c2cccs2)n1	24.8 µM (inactive)	1.72 µM (inactive)	2.58 µM (inactive)	4.3 µM (inactive)	> 100 µM (inactive)	50.8 µM (inactive)	32.1 µM (inactive)	> 100 µM	> 100 µM (inactive)	3.55 µM (inactive)	60.5 µM (inactive)	> 100 µM (inactive)	> 100 µM (inactive)	> 100 µM (inactive)	2.61 µM (inactive)	> 100 µM (inactive)	> 100 µM (inactive)	> 100 µM (inactive)
Nc1cccc(/C=C/C(=O)N2CCN(CCOC(c3ccccc3)c3ccccc3)CC2)c1	15.7 µM (inactive)	16.7 µM (inactive)	21 µM (inactive)	17 µM (inactive)	18.5 µM (inactive)	16.6 µM (inactive)	12.7 µM (inactive)	16.3 µM	15.9 µM (inactive)	16.8 µM (inactive)	17.8 µM (inactive)	20.9 µM (inactive)	15.7 µM (inactive)	16.1 µM (inactive)	17.4 µM (inactive)	15.5 µM (inactive)	17.3 µM (inactive)	17.9 µM (inactive)
O=C(O)c1cc(-c2ccc3c(O)ccc(O)c3c2)ccc1O	5.82 µM (inactive)	18.7 µM (inactive)	18.7 µM (inactive)	20.3 µM (inactive)	25.8 µM (inactive)	20.9 µM (inactive)	19.5 µM (inactive)	16.9 µM	14.7 µM (inactive)	22.6 µM (inactive)	23.7 µM (inactive)	19.7 µM (inactive)	23.2 µM (inactive)	18.2 µM (inactive)	29.1 µM (inactive)	16.8 µM (inactive)	28.1 µM (inactive)	11.5 µM (inactive)
CC(=O)Nc1ccc(NNc2cc(=O)n(C)c(=O)[nH]2)cc1	2.98 µM (inactive)	12.4 µM (inactive)	25.6 µM (inactive)	12 µM (inactive)	14.7 µM (inactive)	2.68 µM (inactive)	11.8 µM (inactive)	8.55 µM	16.7 µM (inactive)	5.57 µM (inactive)	15.9 µM (inactive)	22.4 µM (inactive)	12.1 µM (inactive)			4.33 µM (inactive)	16.7 µM (inactive)	2.56 µM (inactive)
C=CC(OC(C)=O)c1ccc(OC(=O)C(C)C)c(OC)c1 (stereo not given)	2.6 µM (inactive)	1.94 µM (inactive)	6.64 µM (inactive)	2.67 µM (inactive)	9.4 µM (inactive)	5.81 µM (inactive)	2.49 µM (inactive)	4.98 µM	15.3 µM (inactive)	2.36 µM (inactive)	4.81 µM (inactive)	19.6 µM (inactive)	4.72 µM (inactive)	13.3 µM (inactive)	7.8 µM (inactive)	5.85 µM (inactive)	10.2 µM (inactive)	1.95 µM (inactive)
[N-]=[N+]=NC1OC(=O)C(Cl)=C1N=P(c1ccccc1)(c1ccccc1)c1ccccc1 (stereo not given)	> 10 µM (inactive)	> 10 µM (inactive)	> 10 µM (inactive)	7.85 µM (inactive)		5.9 µM (inactive)	9.27 µM (inactive)	7.35 µM	> 10 µM (inactive)	7.13 µM (inactive)	> 10 µM (inactive)	> 10 µM (inactive)	6.44 µM (inactive)	> 10 µM (inactive)	> 10 µM (inactive)	6.37 µM (inactive)	5.51 µM (inactive)	7.78 µM (inactive)
c1ccc(C2(c3cc4ccccc4[nH]3)OCCO2)nc1	> 100 µM (inactive)	> 100 µM (inactive)	> 100 µM (inactive)	> 100 µM (inactive)	> 100 µM (inactive)	> 100 µM (inactive)	> 100 µM (inactive)	> 100 µM	> 100 µM (inactive)	> 100 µM (inactive)	> 100 µM (inactive)	> 100 µM (inactive)	> 100 µM (inactive)	> 100 µM (inactive)	> 100 µM (inactive)	> 100 µM (inactive)	> 100 µM (inactive)	> 100 µM (inactive)
Cc1cc(NS(=O)(=O)c2ccc(NC(=O)c3cccc4c(NNc5ccc(S(=O)(=O)N=C(N)N)cc5)c5ccccc5nc34)cc2)no1	60 µM (inactive)	94.4 µM (inactive)	27.4 µM (inactive)	36 µM (inactive)	74.5 µM (inactive)	41.2 µM (inactive)	91.6 µM (inactive)	63.4 µM	44.7 µM (inactive)	43.7 µM (inactive)	51.1 µM (inactive)	25.2 µM (inactive)	44.2 µM (inactive)	42.9 µM (inactive)	39 µM (inactive)	40.2 µM (inactive)	> 100 µM (inactive)	34.6 µM (inactive)
[O-][n+]1onc(-c2ccccc2)c1CN1CCOCC1	> 100 µM (inactive)	> 100 µM (inactive)	68.1 µM (inactive)	> 100 µM (inactive)	> 100 µM (inactive)	93.1 µM (inactive)	> 100 µM (inactive)	72.9 µM	> 100 µM (inactive)	> 100 µM (inactive)	> 100 µM (inactive)	> 100 µM (inactive)	> 100 µM (inactive)	68.1 µM (inactive)	> 100 µM (inactive)	> 100 µM (inactive)	> 100 µM (inactive)	71.8 µM (inactive)
CC(=O)N1c2ccccc2C2=NN(C)C(=N)SC21 (stereo not given)	> 100 µM (inactive)	68.4 µM (inactive)	> 100 µM (inactive)	> 100 µM (inactive)	> 100 µM (inactive)	13.8 µM (inactive)	> 100 µM (inactive)	> 100 µM		> 100 µM (inactive)	> 100 µM (inactive)	> 100 µM (inactive)	> 100 µM (inactive)		> 100 µM (inactive)	> 100 µM (inactive)	> 100 µM (inactive)	> 100 µM (inactive)
COc1cc2cc(C(=O)N3CC(COS(C)(=O)=O)c4c3cc([N+](=O)[O-])c3ccccc43)[nH]c2c(OC)c1OC (stereo not given)	1.79 µM (inactive)		> 31.6 µM (inactive)	30.1 µM (inactive)	2.78 µM (inactive)	> 31.6 µM (inactive)	> 35.6 µM (inactive)	> 31.6 µM	> 10 µM (inactive)	2 µM (inactive)	2.15 µM (inactive)	> 100 µM (inactive)	60.4 µM (inactive)	2.74 µM (inactive)	10.5 µM (inactive)	1.24 µM (inactive)	0.698 µM (active)	33.2 µM (inactive)
CCOC(=O)/C(C(=O)Nc1cccc(Cl)c1)=C(/N)N1CCOCC1	> 100 µM (inactive)	> 100 µM (inactive)	> 100 µM (inactive)	> 100 µM (inactive)	> 100 µM (inactive)	> 100 µM (inactive)	> 100 µM (inactive)	> 100 µM		> 100 µM (inactive)	> 100 µM (inactive)	> 100 µM (inactive)	> 100 µM (inactive)	> 100 µM (inactive)	> 100 µM (inactive)	> 100 µM (inactive)	> 100 µM (inactive)	> 100 µM (inactive)
